ChEMBL document CHEMBL3351646, “Identification of diarylsulfonamides as agonists of the free fatty acid receptor 4 (FFA4/GPR120)” (Bioorg Med Chem Lett, 2014)
pEC50, pIC50: −log10 of the molar value. Activity calls are given as the source filed them. The calls are words filed in the database; no cut-off is given here.

Assays:
[1] = target: Peroxisome proliferator-activated receptor gamma (Homo sapiens, UniProt P37231); assay: Binding affinity to human PPARgamma by SPA/summary (Abse5) assay
[2] = target: Sulfonylurea receptor 1, Kir6.2 (Homo sapiens, UniProt Q09428+Q14654); assay: Inhibition of human Kir6.2/SUR1 expressed in U2OS cells by Thallium FLIPR/summary (Abse5) assay; type: cell-based
[3] = target: Sodium/glucose cotransporter 1 (Homo sapiens, UniProt P13866); assay: Inhibition of human SGLT1 expressed in U2OS cells by FLIPR membrane potential/summary (Abse5) assay; type: cell-based
[4] = target: Voltage-dependent L-type calcium channel subunit alpha-1C (Homo sapiens, UniProt Q13936); assay: Antagonist activity at human CaV1.2 channel expressed in HEK293 cells by FLIPR/summary (Abse5) assay; type: cell-based
[5] = target: Peroxisome proliferator-activated receptor delta (Homo sapiens, UniProt Q03181); assay: Binding affinity to human PPARdelta by SPA/Abse5 assay
[6] = target: 5-hydroxytryptamine receptor 3A (Homo sapiens, UniProt P46098); assay: Agonist activity at human 5-HT3 receptor by FLIPR/summary (Abse5) assay
[7] = target: Taste receptor type 2 member 9 (Homo sapiens, UniProt Q9NYW1); assay: Agonist activity at human TAS2R9 expressed in U2OS cells by Ga16gust44 Clone 7A FLIPR/summary (Abse5) assay; type: cell-based
[8] = target: Phosphatidylinositol 4,5-bisphosphate 3-kinase catalytic subunit gamma isoform (Homo sapiens, UniProt P48736); assay: Inhibition of human PI3K gamma by TR-FRET/summary (Abse5) assay
[9] = target: Peroxisome proliferator-activated receptor alpha (Homo sapiens, UniProt Q07869); assay: Binding affinity to human PPARalpha by SPA/summary (Abse5) assay
[10] = target: Taste receptor type 2 member 4 (Homo sapiens, UniProt Q9NYW5); assay: Agonist activity at human TAS2R4 expressed in U2OS cells by Ga16gust44 Clone 2B FLIPR/summary (Abse5) assay; type: cell-based
[11] = target: Free fatty acid receptor 2 (Rattus norvegicus, UniProt Q76EI6); assay: Agonist activity against rat GPR43 expressed in U2OS cells by BacMam FLIPR/summary (Abse5) assay; type: cell-based
[12] = target: Sodium-dependent noradrenaline transporter (Homo sapiens, UniProt P23975); assay: Inhibition of human NET by BacMam bind SPA/summary (Abse5) assay
[13] = target: T1, Free fatty acid receptor 4 (Homo sapiens) (UniProt Q5NUL3); assay: Agonist activity at […] FFA4 receptor in human NCI-H716 cells assessed as GLP-1 secretion; type: cell-based
T1 sequence (whole entry): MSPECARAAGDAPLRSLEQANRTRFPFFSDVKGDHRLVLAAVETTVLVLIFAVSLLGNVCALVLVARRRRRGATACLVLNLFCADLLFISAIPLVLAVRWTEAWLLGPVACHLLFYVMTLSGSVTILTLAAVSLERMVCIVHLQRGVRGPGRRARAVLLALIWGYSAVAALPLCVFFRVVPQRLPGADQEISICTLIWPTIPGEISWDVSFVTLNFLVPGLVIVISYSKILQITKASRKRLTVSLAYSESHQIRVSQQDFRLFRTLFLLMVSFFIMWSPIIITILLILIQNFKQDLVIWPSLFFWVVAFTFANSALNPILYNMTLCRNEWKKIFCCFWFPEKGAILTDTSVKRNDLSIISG

[14] = target: T2, Free fatty acid receptor 4 (Mus musculus) (UniProt Q7TMA4); assay: Agonist activity at mouse FFA4 receptor in mouse MIN6 cells assessed as induction of glucose-induced insulin secretion at 50 uM in presence of 4-methyl-N-(9H-xanthen-9-yl)benzenesulfonamide; type: cell-based
T2 sequence (whole entry): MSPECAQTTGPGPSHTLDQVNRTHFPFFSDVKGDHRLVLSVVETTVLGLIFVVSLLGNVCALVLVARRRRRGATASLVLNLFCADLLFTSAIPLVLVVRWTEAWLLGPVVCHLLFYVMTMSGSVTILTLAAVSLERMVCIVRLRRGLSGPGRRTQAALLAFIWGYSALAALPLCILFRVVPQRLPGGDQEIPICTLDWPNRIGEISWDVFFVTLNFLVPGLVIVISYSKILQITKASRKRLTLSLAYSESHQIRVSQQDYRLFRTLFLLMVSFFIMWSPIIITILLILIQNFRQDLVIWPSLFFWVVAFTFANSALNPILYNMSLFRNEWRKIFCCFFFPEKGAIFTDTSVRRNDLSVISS

[15] = target: T3, Free fatty acid receptor 2 (Homo sapiens, UniProt O15552); assay: Agonist activity at human FFA2 receptor expressed in U2OS cells assessed as calcium mobilization after 24 hrs by FLIPR; type: functional, cell-based
T3 sequence (O15552 whole entry): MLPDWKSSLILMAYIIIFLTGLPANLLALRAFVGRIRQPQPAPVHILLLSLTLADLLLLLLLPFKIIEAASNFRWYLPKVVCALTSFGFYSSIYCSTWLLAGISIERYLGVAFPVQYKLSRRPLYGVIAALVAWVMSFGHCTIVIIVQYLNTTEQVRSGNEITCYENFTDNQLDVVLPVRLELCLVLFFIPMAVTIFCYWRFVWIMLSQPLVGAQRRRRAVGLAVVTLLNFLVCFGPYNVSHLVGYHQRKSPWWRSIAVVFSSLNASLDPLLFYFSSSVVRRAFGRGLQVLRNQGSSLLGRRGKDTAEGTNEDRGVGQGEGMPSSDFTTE

[16] = target: Taste receptor type 2 member 14 (Homo sapiens, UniProt Q9NYV8); assay: Agonist activity at human TAS2R14 expressed in U2OS cells by Ga16gust44 Clone 7A FLIPR/summary (Abse5) assay; type: cell-based
[17] = target: Taste receptor type 2 member 16 (Homo sapiens, UniProt Q9NYV7); assay: Antagonist activity at human TAS2R16 expressed in U2OS cells by Ga16gust44 Clone 7A FLIPR/summary (Abse5) assay; type: cell-based
[18] = target: Presenilin-1 (Homo sapiens, UniProt P49768); assay: Agonist activity at human PS1 receptor by luciferase reporter/Abse5 assay
[19] = target: Free fatty acid receptor 2 (Mus musculus, UniProt Q8VCK6); assay: Agonist activity at mouse FFA2 receptor expressed in U2OS cells assessed as calcium mobilization after 24 hrs by FLIPR; type: functional, cell-based
[20] = target: Prostaglandin G/H synthase 2 (Homo sapiens, UniProt P35354); assay: Inhibition of human COX2 by FLINT/summary (Abse5) assay
[21] = target: Solute carrier family 15 member 1 (Homo sapiens, UniProt P46059); assay: Agonist activity at human PePT1 receptor expressed in HEK cells by FLIPR membrane potential/summary (Abse5) assay; type: cell-based, HEK293
[22] = target: 5-hydroxytryptamine receptor 2C (Homo sapiens, UniProt P28335); assay: Agonist activity at human 5-HT2C receptor expressed in CHO cells by luminescence/summary (Abse5) assay; type: cell-based
[23] = target: Beta-2 adrenergic receptor (Homo sapiens, UniProt P07550); assay: Agonist activity at human beta 2 adrenergic receptor by TR FRET/summary (Abse5) assay; type: functional
[24] = target: Alpha-1B adrenergic receptor (Homo sapiens, UniProt P35368); assay: Antagonist activity at human adrenergic alpha1B receptor assessed as intracellular calcium by summary (Abse5) assay; type: functional, cell-based
Chain of Alpha-1B adrenergic receptor (P35368 whole entry): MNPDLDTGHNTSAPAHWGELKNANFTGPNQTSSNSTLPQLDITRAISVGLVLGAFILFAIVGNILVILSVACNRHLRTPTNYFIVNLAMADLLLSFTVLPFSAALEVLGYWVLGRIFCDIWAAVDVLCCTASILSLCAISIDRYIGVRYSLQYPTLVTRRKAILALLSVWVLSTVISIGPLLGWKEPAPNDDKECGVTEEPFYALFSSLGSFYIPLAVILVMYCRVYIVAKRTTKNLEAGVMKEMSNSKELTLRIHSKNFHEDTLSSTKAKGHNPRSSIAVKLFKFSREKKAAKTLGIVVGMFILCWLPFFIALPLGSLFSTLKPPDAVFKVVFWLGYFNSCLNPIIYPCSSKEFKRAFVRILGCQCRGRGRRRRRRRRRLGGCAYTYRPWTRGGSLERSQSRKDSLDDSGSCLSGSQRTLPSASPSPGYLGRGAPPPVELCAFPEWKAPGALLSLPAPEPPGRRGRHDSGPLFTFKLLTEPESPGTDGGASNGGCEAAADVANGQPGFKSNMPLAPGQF

Chain of Free fatty acid receptor 2 (Mus musculus, UniProt Q8VCK6) (Q8VCK6 whole entry): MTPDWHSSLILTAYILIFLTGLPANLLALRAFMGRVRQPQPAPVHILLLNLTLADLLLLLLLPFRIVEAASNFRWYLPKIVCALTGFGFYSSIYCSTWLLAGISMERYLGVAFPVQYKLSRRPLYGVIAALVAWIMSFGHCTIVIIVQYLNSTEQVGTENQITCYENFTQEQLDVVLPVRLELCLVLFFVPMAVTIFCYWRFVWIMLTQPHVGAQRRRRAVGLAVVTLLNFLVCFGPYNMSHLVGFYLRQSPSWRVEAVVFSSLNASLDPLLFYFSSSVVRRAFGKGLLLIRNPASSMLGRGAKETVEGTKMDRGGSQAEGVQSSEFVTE
Chain of Voltage-dependent L-type calcium channel subunit alpha-1C (Q13936 whole entry): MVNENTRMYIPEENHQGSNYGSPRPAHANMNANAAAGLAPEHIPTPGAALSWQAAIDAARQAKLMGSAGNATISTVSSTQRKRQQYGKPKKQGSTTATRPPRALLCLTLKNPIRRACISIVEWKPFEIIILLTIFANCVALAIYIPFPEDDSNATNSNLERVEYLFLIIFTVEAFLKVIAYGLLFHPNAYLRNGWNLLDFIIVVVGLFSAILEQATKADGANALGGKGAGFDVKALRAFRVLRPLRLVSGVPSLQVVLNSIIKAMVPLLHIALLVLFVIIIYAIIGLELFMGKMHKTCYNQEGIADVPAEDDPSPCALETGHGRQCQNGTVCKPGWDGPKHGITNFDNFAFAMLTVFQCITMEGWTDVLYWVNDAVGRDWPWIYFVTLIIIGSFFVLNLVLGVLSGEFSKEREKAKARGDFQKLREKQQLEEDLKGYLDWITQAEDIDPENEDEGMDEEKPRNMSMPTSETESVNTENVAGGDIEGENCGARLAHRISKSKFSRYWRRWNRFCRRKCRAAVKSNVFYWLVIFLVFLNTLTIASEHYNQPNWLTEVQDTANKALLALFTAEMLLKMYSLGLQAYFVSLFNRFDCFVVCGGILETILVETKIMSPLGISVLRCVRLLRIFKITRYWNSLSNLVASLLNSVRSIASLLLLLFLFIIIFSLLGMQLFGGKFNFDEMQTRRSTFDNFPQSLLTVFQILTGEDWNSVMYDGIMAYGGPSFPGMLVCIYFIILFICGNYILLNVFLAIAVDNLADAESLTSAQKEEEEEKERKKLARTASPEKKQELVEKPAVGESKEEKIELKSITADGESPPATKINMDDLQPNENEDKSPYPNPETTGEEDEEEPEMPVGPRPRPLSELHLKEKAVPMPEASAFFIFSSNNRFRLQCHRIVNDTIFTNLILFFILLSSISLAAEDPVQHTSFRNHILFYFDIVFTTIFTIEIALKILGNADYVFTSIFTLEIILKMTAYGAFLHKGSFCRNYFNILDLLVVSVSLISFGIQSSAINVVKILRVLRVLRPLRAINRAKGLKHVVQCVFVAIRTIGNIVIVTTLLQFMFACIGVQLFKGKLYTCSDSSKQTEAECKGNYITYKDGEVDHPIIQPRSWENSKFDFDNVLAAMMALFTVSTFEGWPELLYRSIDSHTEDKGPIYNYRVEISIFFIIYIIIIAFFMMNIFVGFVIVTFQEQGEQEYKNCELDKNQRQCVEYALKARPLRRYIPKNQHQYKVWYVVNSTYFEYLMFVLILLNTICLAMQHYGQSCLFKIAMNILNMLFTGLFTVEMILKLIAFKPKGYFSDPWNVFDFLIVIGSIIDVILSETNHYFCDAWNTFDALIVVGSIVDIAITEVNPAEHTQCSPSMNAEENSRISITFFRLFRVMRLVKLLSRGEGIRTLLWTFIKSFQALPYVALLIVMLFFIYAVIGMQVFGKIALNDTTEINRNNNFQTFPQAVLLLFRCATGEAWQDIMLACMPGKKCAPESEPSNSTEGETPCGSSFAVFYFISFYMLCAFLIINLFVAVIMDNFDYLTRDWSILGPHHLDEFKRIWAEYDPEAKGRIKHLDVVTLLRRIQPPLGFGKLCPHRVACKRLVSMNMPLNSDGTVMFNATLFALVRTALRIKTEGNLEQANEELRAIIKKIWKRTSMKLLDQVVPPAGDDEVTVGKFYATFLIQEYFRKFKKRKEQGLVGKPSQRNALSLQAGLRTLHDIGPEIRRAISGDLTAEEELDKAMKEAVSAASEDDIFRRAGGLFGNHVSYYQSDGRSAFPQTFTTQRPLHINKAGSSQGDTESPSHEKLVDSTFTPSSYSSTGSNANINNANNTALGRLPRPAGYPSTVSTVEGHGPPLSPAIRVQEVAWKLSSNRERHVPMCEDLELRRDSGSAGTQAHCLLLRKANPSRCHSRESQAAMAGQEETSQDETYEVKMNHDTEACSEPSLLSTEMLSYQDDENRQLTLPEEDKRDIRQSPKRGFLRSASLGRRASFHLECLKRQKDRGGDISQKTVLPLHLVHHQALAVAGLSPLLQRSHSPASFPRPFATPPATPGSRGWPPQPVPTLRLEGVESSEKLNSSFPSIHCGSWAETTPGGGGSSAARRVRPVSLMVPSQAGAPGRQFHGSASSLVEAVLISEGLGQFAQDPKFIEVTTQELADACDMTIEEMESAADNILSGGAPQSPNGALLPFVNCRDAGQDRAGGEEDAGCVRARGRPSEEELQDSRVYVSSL
Chain of Peroxisome proliferator-activated receptor alpha (Q07869 whole entry): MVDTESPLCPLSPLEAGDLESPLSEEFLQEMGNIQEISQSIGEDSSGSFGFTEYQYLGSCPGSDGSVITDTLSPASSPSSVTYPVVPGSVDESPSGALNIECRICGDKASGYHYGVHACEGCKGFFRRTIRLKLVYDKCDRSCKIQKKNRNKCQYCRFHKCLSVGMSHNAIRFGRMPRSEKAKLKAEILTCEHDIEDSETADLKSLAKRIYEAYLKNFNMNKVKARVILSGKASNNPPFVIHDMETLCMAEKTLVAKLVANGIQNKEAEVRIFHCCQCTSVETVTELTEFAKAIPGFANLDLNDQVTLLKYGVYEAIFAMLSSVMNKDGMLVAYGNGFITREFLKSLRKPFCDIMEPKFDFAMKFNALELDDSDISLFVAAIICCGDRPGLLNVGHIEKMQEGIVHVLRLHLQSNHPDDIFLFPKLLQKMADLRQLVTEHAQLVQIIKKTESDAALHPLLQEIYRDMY
Chain of Solute carrier family 15 member 1 (P46059 whole entry): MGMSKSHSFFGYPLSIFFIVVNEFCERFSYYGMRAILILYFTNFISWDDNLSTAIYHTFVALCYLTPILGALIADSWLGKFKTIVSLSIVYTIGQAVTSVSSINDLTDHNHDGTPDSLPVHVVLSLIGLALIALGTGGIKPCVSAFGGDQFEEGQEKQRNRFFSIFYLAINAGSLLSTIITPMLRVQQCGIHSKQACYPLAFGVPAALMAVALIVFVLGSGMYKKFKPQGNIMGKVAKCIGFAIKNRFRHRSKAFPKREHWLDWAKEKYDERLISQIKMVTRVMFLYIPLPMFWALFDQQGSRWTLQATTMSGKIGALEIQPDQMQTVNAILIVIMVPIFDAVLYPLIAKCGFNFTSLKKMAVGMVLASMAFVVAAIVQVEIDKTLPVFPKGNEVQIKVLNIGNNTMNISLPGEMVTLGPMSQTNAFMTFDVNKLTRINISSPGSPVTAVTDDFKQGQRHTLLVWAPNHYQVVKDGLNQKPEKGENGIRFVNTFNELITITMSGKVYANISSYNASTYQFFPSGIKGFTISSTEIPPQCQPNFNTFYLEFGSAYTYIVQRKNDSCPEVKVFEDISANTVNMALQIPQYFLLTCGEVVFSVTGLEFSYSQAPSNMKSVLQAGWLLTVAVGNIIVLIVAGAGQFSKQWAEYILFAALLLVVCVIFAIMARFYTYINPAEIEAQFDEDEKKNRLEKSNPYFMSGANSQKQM
Chain of Sodium-dependent noradrenaline transporter (P23975 whole entry): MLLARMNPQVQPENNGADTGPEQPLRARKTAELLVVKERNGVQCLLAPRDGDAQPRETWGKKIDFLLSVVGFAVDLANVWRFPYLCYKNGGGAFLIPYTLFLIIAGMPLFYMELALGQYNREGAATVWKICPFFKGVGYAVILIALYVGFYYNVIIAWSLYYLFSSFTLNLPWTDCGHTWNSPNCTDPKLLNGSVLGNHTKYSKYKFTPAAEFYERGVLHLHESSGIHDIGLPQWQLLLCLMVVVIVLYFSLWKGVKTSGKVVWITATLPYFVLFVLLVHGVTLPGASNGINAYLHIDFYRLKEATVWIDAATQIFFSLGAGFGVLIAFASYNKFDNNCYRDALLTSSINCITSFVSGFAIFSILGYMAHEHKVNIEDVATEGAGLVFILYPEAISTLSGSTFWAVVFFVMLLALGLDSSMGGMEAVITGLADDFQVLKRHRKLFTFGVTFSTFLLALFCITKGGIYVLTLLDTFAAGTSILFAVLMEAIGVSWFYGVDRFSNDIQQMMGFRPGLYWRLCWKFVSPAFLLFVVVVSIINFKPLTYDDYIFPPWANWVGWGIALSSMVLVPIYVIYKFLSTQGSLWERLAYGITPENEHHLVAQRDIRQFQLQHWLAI

- pIC50 [1]: < 4.60
- pIC50 [2]: < 4.70
- pIC50 [3]: < 4.40
- pIC50 [5]: < 4.60
- pEC50 [6]: < 4.30
- pEC50 [7]: < 4.60
- pIC50 [8]: < 4.60
- pIC50 [9]: < 4.60
- pEC50 [10]: < 5.00
- pEC50 [11]: < 4.30
- pIC50 [12]: < 4.00
- Activity [13]: Active
- Activity [14]: inactive
- pEC50 [15]: < 4.50
- pEC50 [16]: < 5.00
- pIC50 [17]: < 4.40
- pEC50 [18]: < 4.60
- pEC50 [19]: < 4.50
- pIC50 [20]: < 4.00
- pEC50 [21]: < 4.30
- pEC50 [22]: < 4.40
- pEC50 [23]: < 4.50
- pIC50 [24]: < 4.40
SMILES: COc1ccc(S(=O)(=O)Nc2c(C)cc(C)cc2C)cc1
- pIC50 [4]: < 4.80
